Patent publication US8952024B2, “Herbicidal pyrimidone derivatives” (E I du Pont de Nemours and Company, priority 2009, dated 2015)

Legend:
Assay type in all cases: in vivo
[1] = test system: giant foxtail (Setaria faberii); assay: Test A pre-/postemergence plant response
Method in brief: (§1)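 Visual injury rating on a 0–100 scale (0 = no effect, 100 = complete control) was made versus untreated controls after about ten days in the greenhouse. Compounds, formulated in a non-phytotoxic solvent mix containing surfactant, were sprayed preemergence onto loam/sand soil and postemergence onto one- to two-leaf plants.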

[2] = test system: pigweed (Amaranthus retroflexus); assay: Test A pre-/postemergence plant response
Method in brief: as §1

[3] = test system: corn (Zea mays); assay: Test A pre-/postemergence plant response
Method in brief: as §1

[4] = test system: velvetleaf (Abutilon theophrasti); assay: Test A pre-/postemergence plant response
Method in brief: as §1

[5] = test system: large crabgrass (Digitaria sanguinalis); assay: Test A pre-/postemergence plant response
Method in brief: as §1

[6] = test system: wheat (Triticum aestivum); assay: Test A pre-/postemergence plant response
Method in brief: as §1

[7] = test system: morningglory (Ipomoea spp.); assay: Test A pre-/postemergence plant response
Method in brief: as §1

[8] = test system: barnyardgrass (Echinochloa crus-galli); assay: Test A pre-/postemergence plant response
Method in brief: as §1

[9] = test system: rice (Oryza sativa); assay: Test B flooded paddy test; conditions: for Plant response rating, Flood, Rice: 250 g ai/ha, flooded paddy test, visual rating on 0 to 100 scale (0 no effect, 100 complete control) after 13 to 15 days; for Plant response rating, Rice: Flood (flooded paddy test), 13 to 15 days
Method in brief: (§2)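 Post-flood paddy application: compounds are introduced into water 3 cm deep over the soil, reaching plants at the 2-leaf stage. The water level is maintained, and after 13–15 days under greenhouse conditions, response is judged by eye relative to controls, where 100 means complete control.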

[10] = test system: ducksalad (Heteranthera limosa); assay: Test B flooded paddy test; conditions: for Plant response rating, Flood, Ducksalad: 250 g ai/ha, flooded paddy test, visual rating on 0 to 100 scale (0 no effect, 100 complete control) after 13 to 15 days; for Plant response rating, Ducksalad: Flood (flooded paddy test), 13 to 15 days
Method in brief: as §2

[11] = test system: umbrella sedge (Cyperus difformis); assay: Test B flooded paddy test; conditions: for Plant response rating, Flood, Sedge, Umbrella: 250 g ai/ha, flooded paddy test, visual rating on 0 to 100 scale (0 no effect, 100 complete control) after 13 to 15 days; for Plant response rating, Sedge, Umbrella: Flood (flooded paddy test), 13 to 15 days
Method in brief: as §2

[12] = test system: barnyardgrass (Echinochloa crus-galli); assay: Test B flooded paddy test; conditions: for Plant response rating, Flood, Barnyardgrass: 250 g ai/ha, flooded paddy test, visual rating on 0 to 100 scale (0 no effect, 100 complete control) after 13 to 15 days; for Plant response rating, Barnyardgrass: Flood (flooded paddy test), 13 to 15 days
Method in brief: as §2

[13] = test system: windgrass (Apera spica-venti); assay: Test B postemergence plant response
Method in brief: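 Plants at the 1- to 4-leaf stage (2 to 18 cm tall), grown in pots of peat moss/vermiculite medium with wetting agent and starter nutrients, received postemergence applications of test chemicals. After 13 to 15 days in a greenhouse, injury was rated visually against untreated controls on a 0 (no effect) to 100 (complete control) scale.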

[14] = Postemergence, 125 g ai/ha, visual injury, 0 to 100 scale (0 no effect, 100 complete control), approx. ten days
[15] = Postemergence, 500 g ai/ha, 0 to 100 scale, 0 = no effect, 100 = complete control, approx. ten days
[16] = Preemergence, 125 g ai/ha, 0 to 100 scale, 0 = no effect, 100 = complete control
[17] = Preemergence, 500 g ai/ha, visual injury, 0 to 100 scale (0 no effect, 100 complete control), approx. ten days
[18] = 31 g ai/ha, scale of 0 to 100 where 0 is no effect and 100 is complete control
[19] = 62 g ai/ha, scale of 0 to 100 where 0 is no effect and 100 is complete control
[20] = 125 g ai/ha, scale 0 to 100, 0 is no effect, 100 is complete control
[21] = 31 g ai/ha, postemergence, scale 0 to 100, 0 is no effect, 100 is complete control
[22] = Postemergence, 62 g ai/ha, scale 0 (no effect) to 100 (complete control), 13 to 15 days
[23] = Postemergence, 125 g ai/ha, visual rating after 13 to 15 days, scale 0 (no effect) to 100 (complete control)
[24] = Postemergence, 250 g ai/ha, scale 0 to 100 (0 no effect, 100 complete control)

Cc1ccc(F)c(-n2c(-c3ccccc3)ncc(C(=O)C3=C(O)CCCC3=O)c2=O)c1 [Compound 51]
Foxtail, Giant plant response rating [1, 14]: 90
Plant response rating, Foxtail, Giant [1, 15]: 90
Plant response rating, Foxtail, Giant [1, 16]: 30
Plant response rating, Foxtail, Giant [1, 17]: 100
Pigweed plant response rating [2, 14]: 100
Plant response rating, Pigweed [2, 15]: 100
Plant response rating, Pigweed [2, 16]: 90
Plant response rating, Pigweed [2, 17]: 100
Corn plant response rating [3, 14]: 0
Plant response rating, Corn [3, 15]: 80
Plant response rating, Corn [3, 16]: 0
Plant response rating, Corn [3, 17]: 0
Velvetleaf plant response rating [4, 14]: 100
Plant response rating, Velvetleaf [4, 15]: 100
Plant response rating, Velvetleaf [4, 16]: 70
Plant response rating, Velvetleaf [4, 17]: 90
Crabgrass, Large plant response rating [5, 14]: 90
Plant response rating, Crabgrass, Large [5, 15]: 100
Plant response rating, Crabgrass, Large [5, 16]: 30
Plant response rating, Crabgrass, Large [5, 17]: 100
Wheat plant response rating [6, 14]: 0
Plant response rating, Wheat [6, 15]: 0
Plant response rating, Wheat [6, 16]: 0
Plant response rating, Wheat [6, 17]: 0
Morningglory plant response rating [7, 14]: 100
Plant response rating, Morningglory [7, 15]: 100
Plant response rating, Morningglory [7, 17]: 90
Barnyardgrass plant response rating [8, 14]: 90
Plant response rating, Barnyardgrass [8, 15]: 90
Plant response rating, Barnyardgrass [8, 16]: 10
Plant response rating, Barnyardgrass [8, 17]: 90
Plant response rating, Flood, Rice [9]: 60
Plant response rating, Rice [9, 18]: 10
Plant response rating, Rice [9, 19]: 15
Plant response rating, Rice [9, 20]: 25
Plant response rating, Flood, Ducksalad [10]: 95
Plant response rating, Ducksalad [10, 18]: 0
Plant response rating, Ducksalad [10, 19]: 30
Plant response rating, Ducksalad [10, 20]: 85
Plant response rating, Flood, Sedge, Umbrella [11]: 90
Plant response rating, Sedge, Umbrella [11, 18]: 30
Plant response rating, Sedge, Umbrella [11, 19]: 40
Plant response rating, Sedge, Umbrella [11, 20]: 85
Plant response rating, Flood, Barnyardgrass [12]: 55
Plant response rating, Barnyardgrass [12, 18]: 15
Plant response rating, Barnyardgrass [12, 19]: 20
Plant response rating, Barnyardgrass [12, 20]: 40
Plant response rating, Windgrass [13, 21]: 50
Plant response rating, Windgrass [13, 22]: 60
Plant response rating, Windgrass [13, 23]: 60
Plant response rating, Windgrass [13, 24]: 85

Cc1ccc(Cl)cc1-n1c(-c2ccccc2)ncc(C(=O)C2=C(O)CCCC2=O)c1=O [Compound 52]
Foxtail, Giant plant response rating [1, 14]: 90
Plant response rating, Foxtail, Giant [1, 15]: 100
Plant response rating, Foxtail, Giant [1, 16]: 80
Plant response rating, Foxtail, Giant [1, 17]: 100
Pigweed plant response rating [2, 14]: 90
Plant response rating, Pigweed [2, 15]: 100
Plant response rating, Pigweed [2, 16]: 100
Plant response rating, Pigweed [2, 17]: 100
Corn plant response rating [3, 14]: 0
Plant response rating, Corn [3, 15]: 70
Plant response rating, Corn [3, 16]: 0
Plant response rating, Corn [3, 17]: 10
Velvetleaf plant response rating [4, 14]: 100
Plant response rating, Velvetleaf [4, 15]: 100
Plant response rating, Velvetleaf [4, 16]: 100
Plant response rating, Velvetleaf [4, 17]: 100
Crabgrass, Large plant response rating [5, 14]: 90
Plant response rating, Crabgrass, Large [5, 15]: 100
Plant response rating, Crabgrass, Large [5, 16]: 90
Plant response rating, Crabgrass, Large [5, 17]: 100
Wheat plant response rating [6, 14]: 0
Plant response rating, Wheat [6, 15]: 40
Plant response rating, Wheat [6, 16]: 0
Plant response rating, Wheat [6, 17]: 0
Morningglory plant response rating [7, 14]: 100
Plant response rating, Morningglory [7, 15]: 100
Plant response rating, Morningglory [7, 16]: 30
Plant response rating, Morningglory [7, 17]: 90
Barnyardgrass plant response rating [8, 14]: 90
Plant response rating, Barnyardgrass [8, 15]: 90
Plant response rating, Barnyardgrass [8, 16]: 40
Plant response rating, Barnyardgrass [8, 17]: 100
Plant response rating, Flood, Rice [9]: 60
Plant response rating, Rice [9, 18]: 0
Plant response rating, Rice [9, 19]: 0
Plant response rating, Rice [9, 20]: 50
Plant response rating, Flood, Ducksalad [10]: 70
Plant response rating, Ducksalad [10, 18]: 0
Plant response rating, Ducksalad [10, 19]: 0
Plant response rating, Ducksalad [10, 20]: 40
Plant response rating, Flood, Sedge, Umbrella [11]: 40
Plant response rating, Sedge, Umbrella [11, 18]: 20
Plant response rating, Sedge, Umbrella [11, 19]: 30
Plant response rating, Sedge, Umbrella [11, 20]: 30
Plant response rating, Flood, Barnyardgrass [12]: 55
Plant response rating, Barnyardgrass [12, 18]: 0
Plant response rating, Barnyardgrass [12, 19]: 0
Plant response rating, Barnyardgrass [12, 20]: 40
Plant response rating, Windgrass [13, 21]: 60
Plant response rating, Windgrass [13, 22]: 80
Plant response rating, Windgrass [13, 23]: 90
Plant response rating, Windgrass [13, 24]: 100
